# Publication PMC9848257, “Design and synthesis of novel rigid dibenzo[b,f]azepines through ring closure technique as promising anticancer candidates against leukaemia and acting as selective topoisomerase II inhibitors and DNA intercalators” (Journal of Enzyme Inhibition and Medicinal Chemistry, 2023)
# Assays:
# [1] = tested on: MDA-MB-468; assay: NCI-60 one-dose screen, MDA-MB-468; type: cell-based; conditions: Homo sapiens; MDA-MB-468, breast cancer; single dose 10 μM; read-out: Growth inhibition %
# Method: (§1) Anti-proliferative effects of the counterparts 4a–g and 5a–g were screened against 60 human cancer cell lines, following the Developmental Therapeutics Program protocol, National Cancer Institute[35].
# (§2) The anti-tumour activity of the fourteen synthesised congeners was investigated at the NCI against a panel of 60 cancer cell lines (NCI-60 Cell One-Dose Screen). The tested dibenzo[b,f]azepine derivatives were screened at a single dose level (10 μM), Table 1.
# [2] = tested on: HL-60(TB); assay: NCI-60 one-dose screen, HL-60(TB); type: cell-based; conditions: Homo sapiens, leukaemia, single dose 10 μM, read-out: Growth inhibition %
# Method: as §1, §2
# [3] = tested on: K-562; assay: NCI-60 one-dose screen, K-562; type: cell-based; conditions: Homo sapiens, K562; K-562, leukaemia; single dose 10 μM; read-out: Growth inhibition %
# Method: as §1, §2
# [4] = tested on: HOP-92; assay: NCI-60 one-dose screen, HOP-92; type: cell-based; conditions: Homo sapiens; HOP-92, non-small cell lung cancer; single dose 10 μM; read-out: Growth inhibition %
# Method: as §1, §2
# [5] = tested on: NCI-H460; assay: NCI-60 one-dose screen, NCI-H460; type: cell-based; conditions: Homo sapiens; NCI-H460, non-small cell lung cancer; single dose 10 μM; read-out: Growth inhibition %
# Method: as §1, §2
# [6] = tested on: MCF-7; assay: NCI-60 one-dose screen, MCF-7; type: cell-based; conditions: Homo sapiens, MCF7; MCF-7, breast cancer; single dose 10 μM; read-out: Growth inhibition %
# Method: as §1, §2
# [7] = tested on: SN12C; assay: NCI-60 one-dose screen, SN12C; type: cell-based; conditions: Homo sapiens, renal cancer, single dose 10 μM, read-out: Growth inhibition %
# Method: as §1, §2
# [8] = tested on: A549-ATCC; assay: NCI-60 one-dose screen, A549-ATCC; type: cell-based; conditions: Homo sapiens, non-small cell lung cancer, single dose 10 μM, read-out: Growth inhibition %
# Method: as §1, §2
# [9] = tested on: topoisomerase II; assay: Topoisomerase II inhibitory assay; type: biochemical
# Method: Therefore, following the procedure reported by Patra et al., the topoisomerase II activity was evaluated.
# [10] = tested on: OVCAR-8; assay: NCI-60 one-dose screen, OVCAR-8; type: cell-based; conditions: Homo sapiens; OVCAR-8, ovarian cancer; single dose 10 μM; read-out: Growth inhibition %
# Method: as §1, §2
# [11] = tested on: SK-OV-3; assay: NCI-60 one-dose screen, SK-OV-3; type: cell-based; conditions: Homo sapiens; SK-OV-3, ovarian cancer; single dose 10 μM; read-out: Growth inhibition %
# Method: as §1, §2
# [12] = tested on: SK-MEL-2; assay: NCI-60 one-dose screen, SK-MEL-2; type: cell-based; conditions: Homo sapiens; SK-MEL-2, melanoma; single dose 10 μM; read-out: Growth inhibition %
# Method: as §1, §2
# [13] = tested on: RPMI-8226; assay: NCI-60 one-dose screen, RPMI-8226; type: cell-based; conditions: Homo sapiens; RPMI-8226, leukaemia; single dose 10 μM; read-out: Growth inhibition %
# Method: as §1, §2
# [14] = tested on: SNB-19; assay: NCI-60 one-dose screen, SNB-19; type: cell-based; conditions: Homo sapiens; SNB-19, CNS cancer; single dose 10 μM; read-out: Growth inhibition %
# Method: as §1, §2
# [15] = tested on: MOLT-4; assay: NCI-60 one-dose screen, MOLT-4; type: cell-based; conditions: Homo sapiens; MOLT-4, leukaemia; single dose 10 μM; read-out: Growth inhibition %
# Method: as §1, §2
# [16] = tested on: HCT-15; assay: NCI-60 one-dose screen, HCT-15; type: cell-based; conditions: Homo sapiens; HCT-15, colon cancer; single dose 10 μM; read-out: Growth inhibition %
# Method: as §1, §2
# [17] = Liver enzymes (ALT, AST) in SEC-bearing mice; type: in vivo, Swiss albino mice; conditions: 6 mg/Kg B.W., IP
# Method: The full methodology of tumour induction, treatments, and blood measurements was carried out according to the described details in the supporting information (SI 5). Moreover, the experimental protocol was approved by the Research Ethics Committee at Suez Canal University (Approval number REC139/2022, Chemistry Department, Faculty of Science, Suez Canal University). […]
# that were I.P. implanted into each normal mouse. SEC cells (1 × 10^6 tumor cells/mouse) were implanted subcutaneously into the right thigh of the hind limb.
# The experimental animals were randomly divided into four groups. Group 1 served as the normal saline control. Group 2 served as the SEC control (1 × 10^6 cells/mouse). Group 3 served as the compound-treated group (6 mg/kg B.Wt., I.P.). Group 4 received the standard anticancer drug of […]
# survival were recorded daily until the 24th day in both treated and control groups. At the end of experiment, the blood of each group was collected under light anesthesia for estimation of hematological and biochemical assays. The anesthetized animals were then sacrificed for evaluation of the antitumor activity and histopathological examination. […]
# At the end of the experiment, animals from different groups were sacrificed, and blood samples were collected for determination of liver enzymes ALT, AST levels. Activities of aspartate aminotransferase (AST) and alanine aminotransferase (ALT) were evaluated using commercial kits (ELITech clinical systems, France). […]
# [18] = tested on: SF-295; assay: NCI-60 one-dose screen, SF-295; type: cell-based; conditions: Homo sapiens; SF-295, CNS cancer; single dose 10 μM; read-out: Growth inhibition %
# Method: as §1, §2
# [19] = tested on: IGROV1; assay: NCI-60 one-dose screen, IGROV1; type: cell-based; conditions: Homo sapiens, IGROV-1; IGROV1, ovarian cancer; single dose 10 μM; read-out: Growth inhibition %
# Method: as §1, §2
# [20] = tested on: LOX IMVI; assay: NCI-60 one-dose screen, LOX IMVI; type: cell-based; conditions: Homo sapiens, melanoma, single dose 10 μM, read-out: Growth inhibition %
# Method: as §1, §2
# [21] = tested on: TK-10; assay: NCI-60 one-dose screen, TK-10; type: cell-based; conditions: Homo sapiens; TK-10, renal cancer; single dose 10 μM; read-out: Growth inhibition %
# Method: as §1, §2
# [22] = tested on: NCI-H522; assay: NCI-60 one-dose screen, NCI-H522; type: cell-based; conditions: Homo sapiens; NCI-H522, non-small cell lung cancer; single dose 10 μM; read-out: Growth inhibition %
# Method: as §1, §2
# [23] = tested on: KM12; assay: NCI-60 one-dose screen, KM12; type: cell-based; conditions: Homo sapiens; KM12, colon cancer; single dose 10 μM; read-out: Growth inhibition %
# Method: as §1, §2
# [24] = tested on: OVCAR-5; assay: NCI-60 one-dose screen, OVCAR-5; type: cell-based; conditions: Homo sapiens; OVCAR-5, ovarian cancer; single dose 10 μM; read-out: Growth inhibition %
# Method: as §1, §2
# [25] = tested on: A498; assay: NCI-60 one-dose screen, A498; type: cell-based; conditions: Homo sapiens; A498, renal cancer; single dose 10 μM; read-out: Growth inhibition %
# Method: as §1, §2
# [26] = tested on: ACHN; assay: NCI-60 one-dose screen, ACHN; type: cell-based; conditions: Homo sapiens, renal cancer, single dose 10 μM, read-out: Growth inhibition %
# Method: as §1, §2
structure (smiles),measurement,setting,value
"O=[N+]([O-])c1ccc(-c2nnc(N3c4ccccc4C=Cc4ccccc43)o2)cc1 [Compound 5e, 2-(5 h-Dibenzo[b,f]azepin-5-yl)-5–(4-nitrophenyl)-1,3,4-oxadiazole]",inhibition at 10 µM,[1],11.4%
same,inhibition at 10 µM,[2],30.1%
same,inhibition at 10 µM,[3],25.3%
same,inhibition at 10 µM,[4],22.8%
same,inhibition at 10 µM,[5],1.84%
same,inhibition at 10 µM,[6],17.4%
same,inhibition at 10 µM,[7],< 10%
same,inhibition at 10 µM,[8],16.5%
same,Percentage of topoisomerase II inhibition,[9]; at the concentration of 100 µM (Figure 3A),89%
same,IC50,"[9]; in vitro, doxorubicin co-assayed as reference",6.36 µM
same,inhibition at 10 µM,[10],1.15%
same,inhibition at 10 µM,[11],< 10%
same,inhibition at 10 µM,[12],< 10%
same,inhibition at 10 µM,[13],< 10%
same,inhibition at 10 µM,[14],< 10%
same,inhibition at 10 µM,[15],19.4%
same,inhibition at 10 µM,[16],30.7%
same,ALT,[17]; SEC control 65.9 U/L,39.8 U/L
same,AST,[17]; SEC control 71 U/L,35.6 U/L
same,inhibition at 10 µM,[18],< 10%
same,melting point,,146 to 148 °C
same,inhibition at 10 µM,[19],< 10%
same,inhibition at 10 µM,[20],< 10%
same,inhibition at 10 µM,[21],< 10%
same,inhibition at 10 µM,[22],15%
same,inhibition at 10 µM,[23],< 10%
same,inhibition at 10 µM,[24],< 10%
same,inhibition at 10 µM,[25],14.8%
same,inhibition at 10 µM,[26],< 10%
